According to US11608319B2, “Beta-amino acid derivative, kinase inhibitor and pharmaceutical composition containing the same, and method for performing an in vivo related application that benefits from the inhibition of a kinase” (Industrial Technology Research Institute, priority 2019, dated 2023):
Where “and” joins values, the source holds several entries; their conditions need not be identical. Identical values can stand only once. Counter-ions that a name gives are not always drawn. Like-named read-outs stand apart in the source and are kept apart here.

Assays:
ROCK1 = ROCK1 (Homo sapiens (Human), UniProt Q13464); experiment: biochemical
MYLK4 = MYLK4 (Homo sapiens (Human), UniProt Q86YV6); experiment: Assay for inhibitory effect on MYLK-4, LanthaScreen Eu Kinase Binding Assay
YSK4 = YSK4 (Homo sapiens (Human), UniProt Q56UN5); experiment: Assay for inhibitory effect on YSK-4, Z'-LYTE kinase assay; assay type: biochemical
Method: C. Assay for Inhibitory Effect on YSK-4
The experimental procedure referred to the Z′-LYTE Screening Protocol and Assay Conditions provided by ThermoFisher Scientific.
C-1. Material Preparation
Peptide/Kinase Mixture was pre-diluted with Kinase Buffer to 2× working concentration.
ATP solution was pre-diluted with Kinase Buffer (50 mM HEPES pH 7.5, 0.01% BRIJ-35, 10 mM MgCl2, 1 mM EGTA) to 4× working concentration.
The development reagent solution is Novel PKC Lipid Mix, which contains 2 mg/mL Phosphatidyl Serine, 0.2 mg/mL DAG in 20 mM HEPES, pH 7.4 and 0.3% CHAPS, and was pre-diluted 10 fold with development buffer.
1. 100 nL of the above diluted test compound and 2.4 μL of kinase buffer were added to a black 384-well plate (Corning, Cat. NO. 4514), then add 5 μL of the peptide/kinase mixture mentioned above was added thereto, and after that 2.5 μL of ATP solution was added thereto, and the culture plate was shaken for 30 seconds.
2. Next, the culture plate was placed at room temperature and incubated for 60 minutes.
3. After that 5 μL of the development reagent solution was added and the culture plate was shaken for 30 seconds in the dark, and then the data was read and analyzed with a fluorescence plate reader.
In addition, for the kinase, the following control group was prepared and placed on the same culture plate as the kinase:
(1) 0% Phosphorylation Control (100% Inhibition Control)
This control yields 100% cleaved peptide in the Development Reaction.
(2) 100% Phosphorylation Control
A synthetically phosphorylated peptide of the same sequence as the peptide substrate is used as the 100% Phosphorylation Control.
The Phosphorylation percent achieved in a specific reaction well (Experimental group) was calculated based on the 0% Phosphorylation Control and 100% Phosphorylation Control.

[1] = system: rabbit eyes with normal intraocular pressure; experiment: Evaluation of the effect of decreasing intraocular pressure in a model of rabbit with normal intraocular pressure; assay type: in vivo, New Zealand white rabbit; details: for Intraocular pressure difference (mmHg): at time point of maximum effect
Method: Evaluation of the Effect of Decreasing Intraocular Pressure in a Model of Rabbit with Normal Intraocular Pressure
Experimental animal: New Zealand white rabbit, male, weighing more than 2 kg. New Zealand white rabbits were purchased from Huijun Farm (Changhua, Taiwan). After a one-week quarantine period, they were raised in MASTER LABORATORY Co., Ltd under the environmental conditions of 16-22° C., 30-70% relative humidity (RH), 8 hours day/16 hours night.
(1) Evaluation of the Effect of Reducing Intraocular Pressure
After weighing 12 New Zealand white rabbits (2.0-4.0 kg) and grouping them (n=3-6 in each group), the white rabbits were fixed with a wrap.

[2] = system: rabbit eyes with high intraocular pressure induced by magnetic beads; experiment: Model of magnetic bead induced high intraocular pressure rabbit (intraocular pressure >30 mmHg); assay type: in vivo, New Zealand white rabbit; details: for Maximum intraocular pressure difference (mmHg): experiment of Table 13
Text: Evaluation of the effect of reducing intraocular pressure in model of magnetic bead induced high intraocular pressure rabbit (high intraocular pressure model with intraocular pressure >30 mmHg)
Experimental animal: New Zealand white rabbit, male, body weight 2.0-3.0 kg. New Zealand white rabbits were purchased from Huijun Farm (Changhua, Taiwan) before the experiment and were raised in the Animal Center of National Chiao Tung University.
Experimental method: After weighing and grouping male New Zealand white rabbits, the New Zealand white rabbits were anesthetized with Zoletil 50 0.2 mL/kg. 50 μL of magnetic bead solution (50 mg/mL, magnetic bead size of 10 μm) was injected into the left and right anterior eye chambers of the rabbit under anesthesia to make rabbit eyes become a state of high intraocular pressure. After the injection to the anterior chamber of the eye, a strong […] iron magnet ring was immediately put around the eye for 10-20 minutes to make the magnetic beads completely block the drainage tissue of the aqueous humor. After disinfecting the eyeball with antibiotics, moisturizing eye ointment was provided to restore the eyeball, and the intraocular pressure rising was waited. […] The experiment was conducted for 2 consecutive days.

[3] = system: rabbit eyes with normal intraocular pressure; details: for maximum effect (Emax) dose in the normal intraocular pressure rabbit model: eye drop concentration
Method: The maximal effect (Emax) dose evaluation of the intraocular pressure reduction model in normal rabbit
Animals: Male New Zealand white rabbits (n=7/each group);
Administration: 50 μL of the test compound was instilled in the right eye (dosed eye) and 50 μL of the vehicle (without the test compound) in the left eye (control eye) of each experimental animal. The 3 formulation mentioned above were administered once a day for 3 consecutive days.
The intraocular pressure of each animal was measured by Tono-Vet (iCare) before administration (0 hours) and 2, 4, 6 and 8 hours after administration on Day 1 and Day 3.
The maximum magnitude of the reduction in intraocular pressure %=(Intraocular pressure of the control eye−Intraocular pressure of the dosed eye)/Intraocular pressure of the control eye*100
The data presented in this experiment is the data that has removed the unqualified data (white rabbits with an intraocular pressure difference ≥2 mmHg (n=1) in the two eyes on Day 1 and >5 mmHg in the two eyes before the administration on the Day 3 (n=1) have been removed) and removed the rebound high intraocular pressure (n=3).

rabbit eyes [4] = experiment: Safety margin assay (eye irritation, OECD/OCDE 405)
[5] = system: rabbit eyes with high intraocular pressure induced by hypertonic saline; experiment: Model of hypertonic saline induced high intraocular pressure rabbit (acute high intraocular pressure model); assay type: in vivo, New Zealand white rabbit; design: AUC: unit not given beside the values; details: for AUC: intraocular pressure over 0-5 hours; for Maximum intraocular pressure difference (%) / Maximum intraocular pressure difference (mm Hg): versus physiological saline group
Text: Evaluation of the effect of reducing intraocular pressure in model of hypertonic saline induced high intraocular pressure rabbit (acute high intraocular pressure model)
Experimental animal: New Zealand white rabbit, male, weighing 2.0-3.0 kg. New Zealand white rabbits were purchased from a qualified laboratory animal rabbit farm in Taiwan before the experiment and were raised in the Animal Center of National Chiao Tung University.
Negative control 1: Physiological saline
Negative control 2: Vehicle without test substance (containing 5% mannitol, 20 mM boric acid and 0.125% nonoxynol-9)
Experimental method: male New Zealand white rabbits were weighed and grouped and then anesthetized. 160 μL of hypertonic saline (5% NaCl) was injected into the vitreous bodies of the left and right eyes of the rabbit under anesthesia, so that the rabbit eyes became a state of high intraocular pressure. […] The intraocular pressure (TOP) detection time points were before anesthesia (0 hours) and 0.5, 1, 1.5, 3, and 5 hours after administration.
Maximum intraocular pressure difference: The difference between an individual's TOP readings and the average TOP readings of the negative control group 1 (physiological saline) at the time point at which the maximum response is recorded (J Ocul Pharmacol Ther. 2010 April; 26(2): 125-132)

patients = details: cited from earlier work
rabbit eyes [6] = experiment: Eye irritation evaluation (OECD/OCDE 405); assay type: in vivo, New Zealand white rabbit
Text: (2) Irritation Evaluation

cornea of rabbit eyes = experiment: Observation of cornea with a slit lamp after 7 days of administration; assay type: in vivo, New Zealand white rabbit; details: 0.1% eye drops, continuous administration for 7 days, once a day
[7] = Content analysis for candidate drug in aqueous humor, iris and ciliary body after administration
Text: (4) Content Analysis for Candidate Drug in Aqueous Humor (AH) after Administration

normal macaques = experiment: Intraocular pressure in animal model of macaque with normal intraocular pressure; assay type: in vivo; details: eye drop 0.1% or 0.03%
Method: The intraocular pressure of animals was measured by a pneumatic tonometer (Model 30™ Pneumatonometer). Animal anesthesia was required before intraocular pressure measurement. After topical administration (once a day), the intraocular pressure of the animals was measured at the set time points.

humans = details: phase III clinical trial; cited from earlier work
[8] = eye drops containing 0.1% and 0.03% Compound 20

MYLK4, sequence (Q86YV6 whole entry): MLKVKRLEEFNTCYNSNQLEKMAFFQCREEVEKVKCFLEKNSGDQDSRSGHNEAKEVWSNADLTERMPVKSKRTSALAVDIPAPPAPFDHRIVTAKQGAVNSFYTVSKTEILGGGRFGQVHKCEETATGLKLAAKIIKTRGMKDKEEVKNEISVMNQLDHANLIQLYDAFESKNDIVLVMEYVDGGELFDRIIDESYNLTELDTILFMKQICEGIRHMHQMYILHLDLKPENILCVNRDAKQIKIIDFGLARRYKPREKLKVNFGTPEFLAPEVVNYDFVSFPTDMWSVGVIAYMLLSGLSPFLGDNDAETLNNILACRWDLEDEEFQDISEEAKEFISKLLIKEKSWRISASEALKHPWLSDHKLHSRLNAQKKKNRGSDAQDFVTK
ROCK1, sequence (Q13464 whole entry, species assumed): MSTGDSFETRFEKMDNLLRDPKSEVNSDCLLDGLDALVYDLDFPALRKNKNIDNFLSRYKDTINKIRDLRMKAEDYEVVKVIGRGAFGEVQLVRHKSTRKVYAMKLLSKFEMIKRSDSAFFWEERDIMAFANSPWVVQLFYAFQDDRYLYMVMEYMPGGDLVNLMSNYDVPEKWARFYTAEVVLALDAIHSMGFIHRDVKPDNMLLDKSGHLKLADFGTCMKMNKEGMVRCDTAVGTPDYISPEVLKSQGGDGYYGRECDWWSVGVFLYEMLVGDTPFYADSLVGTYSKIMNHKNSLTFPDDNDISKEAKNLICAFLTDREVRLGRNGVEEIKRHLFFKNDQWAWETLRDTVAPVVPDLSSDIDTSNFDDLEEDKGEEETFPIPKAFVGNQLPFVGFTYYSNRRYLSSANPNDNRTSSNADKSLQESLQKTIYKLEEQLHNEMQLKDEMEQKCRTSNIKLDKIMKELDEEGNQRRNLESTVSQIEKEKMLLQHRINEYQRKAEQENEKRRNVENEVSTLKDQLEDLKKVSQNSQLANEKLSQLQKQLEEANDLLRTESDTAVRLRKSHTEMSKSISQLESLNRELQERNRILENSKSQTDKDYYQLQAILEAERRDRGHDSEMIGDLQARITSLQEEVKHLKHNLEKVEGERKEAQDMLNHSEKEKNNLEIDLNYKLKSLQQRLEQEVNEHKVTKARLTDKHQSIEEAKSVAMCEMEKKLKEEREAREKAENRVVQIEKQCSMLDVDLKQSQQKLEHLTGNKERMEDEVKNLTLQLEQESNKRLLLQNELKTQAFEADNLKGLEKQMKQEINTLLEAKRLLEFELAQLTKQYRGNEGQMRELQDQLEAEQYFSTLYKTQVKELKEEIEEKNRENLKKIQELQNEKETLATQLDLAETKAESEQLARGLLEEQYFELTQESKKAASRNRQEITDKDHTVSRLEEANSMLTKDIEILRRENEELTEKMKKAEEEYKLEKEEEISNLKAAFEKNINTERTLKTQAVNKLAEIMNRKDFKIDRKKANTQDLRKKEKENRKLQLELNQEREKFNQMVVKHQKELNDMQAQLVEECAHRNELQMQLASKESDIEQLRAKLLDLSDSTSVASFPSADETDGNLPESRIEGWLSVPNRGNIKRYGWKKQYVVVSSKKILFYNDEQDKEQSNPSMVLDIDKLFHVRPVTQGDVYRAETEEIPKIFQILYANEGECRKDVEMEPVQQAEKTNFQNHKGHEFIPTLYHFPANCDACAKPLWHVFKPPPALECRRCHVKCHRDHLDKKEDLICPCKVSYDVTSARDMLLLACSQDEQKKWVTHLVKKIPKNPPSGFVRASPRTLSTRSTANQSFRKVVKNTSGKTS
YSK4, sequence (Q56UN5 whole entry): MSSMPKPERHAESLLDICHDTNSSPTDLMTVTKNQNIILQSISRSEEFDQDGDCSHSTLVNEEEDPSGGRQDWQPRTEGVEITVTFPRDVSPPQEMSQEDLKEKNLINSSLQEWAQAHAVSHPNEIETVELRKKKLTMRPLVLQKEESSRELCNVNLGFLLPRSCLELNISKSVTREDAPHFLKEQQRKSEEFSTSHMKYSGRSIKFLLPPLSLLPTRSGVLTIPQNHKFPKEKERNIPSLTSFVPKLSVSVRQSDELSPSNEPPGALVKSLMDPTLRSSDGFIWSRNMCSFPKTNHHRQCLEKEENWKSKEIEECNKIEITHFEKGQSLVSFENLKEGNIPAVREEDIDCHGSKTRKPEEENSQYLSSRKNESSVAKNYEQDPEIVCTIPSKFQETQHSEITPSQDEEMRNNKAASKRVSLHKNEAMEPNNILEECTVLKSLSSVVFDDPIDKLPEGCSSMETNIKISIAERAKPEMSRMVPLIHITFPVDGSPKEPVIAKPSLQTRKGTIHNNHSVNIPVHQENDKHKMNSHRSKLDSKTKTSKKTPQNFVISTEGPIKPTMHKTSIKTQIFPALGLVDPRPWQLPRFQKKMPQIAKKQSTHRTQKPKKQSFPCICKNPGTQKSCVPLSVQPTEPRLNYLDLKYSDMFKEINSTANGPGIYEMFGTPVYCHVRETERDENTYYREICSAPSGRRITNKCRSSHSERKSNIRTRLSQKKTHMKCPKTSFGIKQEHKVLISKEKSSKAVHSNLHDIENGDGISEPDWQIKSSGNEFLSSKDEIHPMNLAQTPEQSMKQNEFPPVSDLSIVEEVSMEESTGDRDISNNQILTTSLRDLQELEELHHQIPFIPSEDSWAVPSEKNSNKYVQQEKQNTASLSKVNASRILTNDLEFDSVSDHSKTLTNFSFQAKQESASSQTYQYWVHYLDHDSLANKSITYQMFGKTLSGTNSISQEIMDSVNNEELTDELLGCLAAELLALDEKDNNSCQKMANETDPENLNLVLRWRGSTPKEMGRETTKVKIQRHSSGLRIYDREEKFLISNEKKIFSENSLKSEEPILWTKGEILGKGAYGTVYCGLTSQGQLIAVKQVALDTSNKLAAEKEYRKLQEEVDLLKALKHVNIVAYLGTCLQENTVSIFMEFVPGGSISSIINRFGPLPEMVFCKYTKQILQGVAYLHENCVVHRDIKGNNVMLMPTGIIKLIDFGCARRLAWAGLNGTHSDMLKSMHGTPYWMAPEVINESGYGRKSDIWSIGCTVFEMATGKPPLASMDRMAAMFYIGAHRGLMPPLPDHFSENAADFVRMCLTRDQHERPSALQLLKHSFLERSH

NCC(C(=O)Nc1ccc(-c2cn[nH]c2)cc1)c1ccccc1 (racemic) [Compound 7, N-(4-(1H-pyrazol-4-yl)phenyl)-3-amino-2-phenylpropanamide dihydrochloride]
IC50 (ROCK1): 1 to 10 nM | IC50 (MYLK4): 10 to 100 nM | IC50 (YSK4; ATP 5 μM): > 1000 nM | time point at which maximum effect is achieved ([1]; dose 1%): 4 h | Intraocular pressure difference (mmHg) ([1]; dose 1%): 5.1 mmHg | Maximum intraocular pressure difference (mmHg) ([2]; dose 0.5%): 6.7 ± 1.6 mmHg | Maximum intraocular pressure difference (mmHg) ([2]; dose 1%): 11.8 ± 0.8 mmHg | maximum effect (Emax) dose in the normal intraocular pressure rabbit model [3]: 1% | OECD Score: Chemosis (rabbit eyes [4]; Therapeutic index: 3): 0 | OECD Score: Discharge (rabbit eyes [4]; Therapeutic index: 3): 1 | OECD Score: Redness (rabbit eyes [4]; Therapeutic index: 3): 1 | OECD Score: Total (rabbit eyes [4]; Therapeutic index: 3): 2

Cc1ccc(C(=O)OCc2ccc([C@@H](CN)C(=O)Nc3ccc4cnccc4c3)cc2)c(C)c1 [AR-13324, Netarsudil, reference compound]
IC50 (MYLK4): > 1000 nM | time point at which maximum effect is achieved ([1]; dose 1%): 6 h | Intraocular pressure difference (mmHg) ([1]; dose 1%): 4.5 mmHg | AUC ([5]; dose 0.02%): 132.9 | Maximum intraocular pressure difference (%) ([5]; dose 0.02%): −20.8% | Maximum intraocular pressure difference (mm Hg) ([5]; dose 0.02%): −7.7 ± 4.2 mm Hg | difference compared with the physiological saline or the vehicle (t-test) ([5]; eye drop containing 0.02%): no statistically significant difference | reduction of the intraocular pressure ([5]; eye drop containing 0.02%): about 7.7±4.2 mmHg | Maximum intraocular pressure difference (mmHg) ([2]; dose 0.02%): 3.6 ± 2.1 mmHg | reduction of intraocular pressure in percent ([2]; eye drop containing 0.02%): about 11.0% | efficacy compared with Timolol (patients; patients <25 mmHg): comparable to Timolol | efficacy compared with Timolol (patients; patients with intraocular pressure >25 mmHg): not as effective as the conventional glaucoma treatment drug Timolol | OECD Score: Chemosis (rabbit eyes [4]; Therapeutic index: 2): 1 | OECD Score: Discharge (rabbit eyes [4]; Therapeutic index: 2): 2 | OECD Score: Redness (rabbit eyes [4]; Therapeutic index: 2): 1 | OECD Score: Total (rabbit eyes [4]; Therapeutic index: 2): 4

NC[C@@H](C(=O)Nc1ccc(-c2cn[nH]c2)cc1)c1ccccc1 [Compound 20, (S)—N-(4-(1H-pyrazol-4-yl)phenyl)-3-amino-2-phenylpropanamide dihydrochloride]
IC50 (ROCK1): 1 to 10 nM | IC50 (MYLK4): 10 to 100 nM | inhibitory effect on YSK4 (in words) (YSK4): simultaneously targets ROCK, MYLK-4 and YSK-4 | time point at which maximum effect is achieved ([1]; dose 0.03%): 8 h | Intraocular pressure difference (mmHg) ([1]; dose 0.03%): 4.9 mmHg | maximum magnitude of the reduction in intraocular pressure [1, 8]: 4.4-4.9 mmHg | time of maximum effect (Emax) after administration [1, 8]: 6 to 8 h | eye irritation compared with AR-13324 (0.02%) (rabbit eyes [6]; Compound 20 at 0.1%): lower than AR-13324 | eye irritation (rabbit eyes [6]; [8]): slight | state of the cornea (cornea of rabbit eyes): free of damage and turbidity | content in the aqueous humor after administration ([7]; normal rabbits): can reach the requirement of ROCK inhibition | drug concentration at the target tissue (iris and ciliary body, aqueous humor) ([7]; rabbit eyes with normal intraocular pressure): reaches the target effect IC90 or more within 8 hours | side effects, such as pink eye (normal macaques): without obvious side effects | effect of reducing intraocular pressure compared with 0.02% AR-13324 (normal macaques; once a day): equivalent to or better than that of AR-13324 | effect in reducing intraocular pressure compared with AR-13324 (t-test) ([5]; 0.1% Compound 20 versus 0.02% AR-13324, p<0.05): significantly better than that of AR-13324 | AUC ([5]; dose 0.1%): 99.1 | Maximum intraocular pressure difference (%) ([5]; dose 0.1%): −40.4% | Maximum intraocular pressure difference (mm Hg) ([5]; dose 0.1%): −18.0 ± 6.8 mm Hg | reduction of the intraocular pressure ([5]; eye drop containing 0.1%): about 18.0±6.8 mmHg | reduction of intraocular pressure in percent ([2]; eye drop containing 0.03%): about 15.3% | reduction of intraocular pressure in percent ([2]; eye drop containing 0.1%): about 28.8% | dose dependence of the reduction of intraocular pressure ([3]; 0.01%, 0.03%, 0.1%): exhibits a dose dependent effect | increase of the reduction in intraocular pressure on Day 3 compared to Day 1 ([3]; 0.03% Compound 20, on average): ~1 mmHg | The magnitude of intraocular pressure reduction (ΔIOP) (mmHg) ([3]; Day 1, 0.01% Compound 20, 50 μL eye drop): −2.9 ± 1.1 mmHg | The maximum magnitude of the reduction in intraocular pressure ([3]; Day 1, 0.01% Compound 20, versus control eye): 18.7% | The magnitude of intraocular pressure reduction (ΔIOP) (mmHg) ([3]; Day 1, 0.03% Compound 20, 50 μL eye drop): −4.3 ± 1.2 mmHg | The maximum magnitude of the reduction in intraocular pressure ([3]; Day 1, 0.03% Compound 20, versus control eye): 28.3% | The magnitude of intraocular pressure reduction (ΔIOP) (mmHg) ([3]; Day 1, 0.10% Compound 20, 50 μL eye drop): −5.3 ± 0.6 mmHg | The maximum magnitude of the reduction in intraocular pressure ([3]; Day 1, 0.10% Compound 20, versus control eye): 32.2% | The magnitude of intraocular pressure desc (ΔIOP) (mmHg) ([3]; Day 3, 0.01% Compound 20, once a day): −2.7 ± 0.8 mmHg | The maximum magnitude of the reduction in intraocular pressure ([3]; Day 3, 0.01% Compound 20, versus control eye): 15.4% | The magnitude of intraocular pressure desc (ΔIOP) (mmHg) ([3]; Day 3, 0.03% Compound 20, once a day): −5.1 ± 1.2 mmHg | The maximum magnitude of the reduction in intraocular pressure ([3]; Day 3, 0.03% Compound 20, versus control eye): 30.5% | The magnitude of intraocular pressure desc (ΔIOP) (mmHg) ([3]; Day 3, 0.10% Compound 20, once a day): −5.2 ± 1.3 mmHg | The maximum magnitude of the reduction in intraocular pressure ([3]; Day 3, 0.10% Compound 20, versus control eye): 32.6% | maximum effect (Emax) dose in the normal intraocular pressure rabbit model [3]: 0.03% | Tmax ([3]; rabbit, in vivo, dihydrochloride): 6 h and 8 h

C[C@H]1CNCCCN1S(=O)(=O)c1cccc2cncc(F)c12 [Ripasudil]
incidence of mild conjunctival hyperemia (humans): up to 75%
